Laboratory results taken from patent publication US20170240570A1, “NOVEL SMALL MOLECULE ANTICANCER AGENTS” (UNIVERSITY OF FLORIDA RESEARCH FOUNDATION, priority 2014, published 2017).
“Also recorded” adds a separate entry of the source.

What was measured:
Type in all cases: cell-based, human
HCC1954 cells = assay: Viability in MTT assay; conditions: 24 h
Method: FIG. 8. depicts 8A) Viability of HCC1954 cells treated as indicated for 24 h measured in MTT assays.

[1] = tested on: HER2, EGFR, Akt, Erk, S6, PARP in HCC1954 cells; assay: Immunoblot analysis of treated cells
Source text: Immunoblot analysis of HCC1954 cells treated as in 8B.

[2] = tested on: MDA-MB-468 breast cancer cells; assay: Cell viability / cell killing, photomicrographs of treated cells
Method: (§1) FIG. 2. depicts 2A) Photomicrographs of MDA-MB-468 or BxPC3 cells treated for 24 hours with 25 μM NSC624205 or the vehicle control. 2B) MDA-MB-468 cells were treated for 24 hours with the indicated concentrations of NSC624203, NSC624204, and NSC624205 and cell viability (mass) was measured by crystal violet staining. 2C) Photomicrographs of MDA-MB-468, SKBR3, or MDA-MB-231 cells treated for 24 h with 10 μM NSC624205 or the vehicle control. 2D) Cell proliferation was measured by thymidine incorporation through the treatment of MDAMB-468 and SKBR3 cells for 24 hours with NSC624203, an EGFR/HER2 inhibitor, or a combination of the two compounds. Results are presented as the average of triplicate determinations±S.D. 2E) The indicated cancer cell lines were treated for 24 h with 20 μM NSC624205 or vehicle and cell extracts were analyzed by immunoblot. Actin serves as a loading control.
FIG. 5. depicts 5A) Photomicrographs of MDA-MB-468 cells treated for 24 h with 20 μM of the indicated compounds. 5B) Immunoblot analysis of MDA-MB-468 cells treated as in 5A. 5C) Chemical structures of Disulfide bond Disrupting Agents (DDAs) showing active compounds on the left side with the pharmacophore highlighted in red, along with the generic pharmacophore. […] The exception to this rule is NSC627175/DTDO, which represents a different pharmacophore. 5D) Viability of BT474 or MDA-MB-468 cells treated for 24 h with the indicated drug at the specified concentrations was measured in MTT assays. Assays were carried out in triplicate and results were presented as the average±S.D. 5E) Proliferation of tert-immortalized human mammary epithelial cells (HMEC-tert) and MDA-MB-468, BT474, and SKBR3 breast cancer cells after incubation with the indicated concentrations of RBF3 for 24 h was measured in thymidine incorporation assays as described in FIG. 2D. 5F)-5H) The indicated cell lines were treated with the indicated compounds at 20 μM unless otherwise indicated for 24 h and analyzed by immunoblot.
The sulfur atom in sulfinic acids can act as a nucleophile capable of breaking disulfide bonds. […]

[3] = tested on: EGFR, HER2, HER3, Akt, Erk, PARP in MDA-MB-468 cells; assay: Immunoblot analysis of treated cells
Method: FIG. 3. depicts 3A) the analysis of MDA-MB-468 cells treated as indicated for 24 h by immunoblot for levels of EGFR and EGFR phosphorylation. 3B) the analysis of MDA-MB-468 cells treated as indicated for 24 h by immunoblot for PARP cleavage. 3C) MDA-MB-468 cells were either left untreated, or treated with 20 μM NSC624205 for 24 hours. NSC624205-treated cells were then washed and incubated for the indicated periods in the absence of drug. EGFR electrophoretic mobility was analyzed by immunoblot. 3D) MDA-MB-468 cells were pretreated with 25 μM NSC624205 or vehicle for 15 hours and then either left untreated or stimulated for 15 minutes with 20 ng/ml EGF, after which cell extracts were analyzed by immunoblot. 3E) MDA-MB-468 cells were treated as indicated for 24 hours and analyzed by immunoblot.
FIG. 5. depicts 5A) Photomicrographs of MDA-MB-468 cells treated for 24 h with 20 μM of the indicated compounds. 5B) Immunoblot analysis of MDA-MB-468 cells treated as in 5A. […] 5D) Viability of BT474 or MDA-MB-468 cells treated for 24 h with the indicated drug at the specified concentrations was measured in MTT assays. Assays were carried out in triplicate and results were presented as the average±S.D. 5E) Proliferation of tert-immortalized human mammary epithelial cells (HMEC-tert) and MDA-MB-468, BT474, and SKBR3 breast cancer cells after incubation with the indicated concentrations of RBF3 for 24 h was measured in thymidine incorporation assays as described in FIG. 2D. 5F)-5H) The indicated cell lines were treated with the indicated compounds at 20 μM unless otherwise indicated for 24 h and analyzed by immunoblot.
To examine the reversibility of NSC624205 actions, MDA-MB-468 cells were treated for 24 hr with NSC624205 and then the compound was washed out and the cells were allowed to recover for various periods of time. […] To examine whether NSC624205 can suppress cellular responses to EGF, cells were stimulated with EGF either with or without NSC624205 treatment.

SKBR3 cells [4] = assay: Cell proliferation by thymidine incorporation; conditions: 24 hours, same concentration
Method: as §1
(§2) The sulfur atom in sulfinic acids can act as a nucleophile capable of breaking disulfide bonds. Therefore we obtained several sulfinate-containing compounds from the National Cancer Institute's Developmental Therapeutics Program (NCI/DTP) and, as an initial screen, examined their ability to decrease the viability of various human cancer cell lines. […] NSC624205 and two related compounds, NSC624203 and NSC624204, decreased cell viability by 50% in the range of 3.7-33 μM (FIG. 2B). […]

MDA-MB-468 cells = assay: Cell proliferation by thymidine incorporation; conditions: 24 hours, same concentration
Method: as §1, §2

[5] = tested on: T47D.Puro and T47D.EGFR cells; assay: Thymidine incorporation, vector control versus EGFR overexpressing cells; conditions: 24 h, increasing concentrations
[6] = tested on: EGFR, HER2, HER3, Akt, Erk in SKBR3 cells; assay: Immunoblot analysis of treated cells; conditions: 20 μM, 24 h
Method: as §1
FIG. 5. depicts 5A) Photomicrographs of MDA-MB-468 cells treated for 24 h with 20 μM of the indicated compounds. 5B) Immunoblot analysis of MDA-MB-468 cells treated as in 5A. […] 5D) Viability of BT474 or MDA-MB-468 cells treated for 24 h with the indicated drug at the specified concentrations was measured in MTT assays. […] 5F)-5H) The indicated cell lines were treated with the indicated compounds at 20 μM unless otherwise indicated for 24 h and analyzed by immunoblot. […]

[7] = tested on: EGFR, Akt in EGFR overexpressing T47D cells; assay: Immunoblot analysis of treated cells; conditions: 20 μM, 24 hours
Method: (§3) FIG. 4. depicts 4A) the treatment of vector control or EGFR overexpressing T47D cells with 20 μM NSC624205 or vehicle for 24 hours and then photographed. […] 4B) Cells treated as in 4A) were subjected to immunoblot analysis.

SKBR3 cells [8] = assay: Cell killing, photomicrographs of treated cells; conditions: 10 μM, 24 hr
Method: as §1, §2

[9] = tested on: MDA-MB-231 breast cancer cell line; assay: Cell killing, photomicrographs of treated cells; conditions: 10 μM, 24 hr
Method: as §1, §2

[10] = tested on: BxPC3 pancreatic cancer cells; assay: Cell viability, photomicrographs of treated cells; conditions: 25 μM, 24 hours
Method: as §1, §2

[11] = tested on: T47D cells (vector control); assay: Cell death, photographs of treated cells
Method: as §3

[12] = tested on: T47D cells with enforced EGFR expression (T47D.EGFR); assay: Cell death, photographs of treated cells; conditions: 20 μM, 24 hours
Method: as §3

Erk in T47D cells = assay: Immunoblot analysis of treated cells; conditions: 20 μM, 24 h
Method: as §1, §2

[13] = 25 μM pretreatment 15 hours, 20 ng/ml EGF 15 minutes
[14] = 24 h, increasing concentrations

For `CS(=O)(=O)CCNCc1ccc(-c2ccc3ncnc(Nc4ccc(OCc5cccc(F)c5)c(Cl)c4)c3c2)o1` [Lapatinib], the “response of cell viability to single drug” value (HCC1954 cells) was “slightly more responsive”, the Akt phosphorylation ([1]; 24 h, 20 μM RBF3, 100 nM Rapamycin, 20 μM Lapatinib) was “without affecting” and the Erk phosphorylation ([1]; 24 h, 20 μM RBF3, 100 nM Rapamycin, 20 μM Lapatinib (FIG. 8C)) was “reduced”.
With `O=S(O)CCCCSSSCCCCS(=O)O` [NSC333839] the cell viability ([2]; 20 μM, 24 h, panel of sulfinate-containing compounds) was “activity similar to NSC624205” and the “EGFR and Akt phosphorylation” value ([3]; 20 μM, 24 h) was “activity similar to NSC624205”.
For `O=S(O)CCCCSSCC(O)CO` (stereo not drawn) [NSC606968], the Akt phosphorylation ([3]; 20 μM, 24 h) was “weak effect” and the EGFR electrophoretic mobility ([3]; 20 μM, 24 h) was “partial effect”.
`O=S(O)CCCCSSCC(O)C(O)CSSCCCCS(=O)O` (stereo not drawn) [NSC624203] was tested, and the “inhibition of proliferation compared with commercial EGFR/HER2 tyrosine kinase inhibitor (Calbiochem #324673)” value (SKBR3 cells [4]) was “more effectively suppressed”, the “inhibition of proliferation compared with commercial EGFR/HER2 tyrosine kinase inhibitor (Calbiochem #324673)” value (MDA-MB-468 cells) was “more effectively suppressed” and the “sensitivity of proliferation of EGFR overexpressing T47D cells relative to control cells” value [5] was “more sensitive”. For the same compound, the “decreasing Akt phosphorylation, increasing PARP cleavage, reducing EGFR and overall cellular tyrosine phosphorylation, compared with AG490 or EGFR/HER2 kinase inhibitor” value ([3]; 24 hours) was “more effective”.
For `O=S(O)CCCCSSCCCCSSCCCCS(=O)O` [NSC624205], the Akt phosphorylation [6] was “inhibiting”, the Erk phosphorylation [6] was “inhibiting” and the Akt phosphorylation [7] was “decreased”. For the same compound, the EGFR electrophoretic mobility [7] was “electrophoretic mobility shift”, the cell killing (SKBR3 cells [8]) was “killed” and the cell killing [9] was “little effect”. The cell viability [10] was “little effect”, the cell killing ([2]; 10 μM, 24 hr) was “killed” and the cell viability ([2]; 25 μM, 24 hours) was “lethal”. The cell killing [11] was “not killed”, the cell death [12] was “Extensive cell death; also recorded: underwent cell death” and the “EGFR electrophoretic mobility after washout (reversibility)” value ([3]; 20 μM for 24 hours, then 24 hours post-treatment without drug) was “restored to near control levels”. The “EGFR tyrosine phosphorylation on Tyr845, EGF-induced” value [3, 13] was “decreased”, the “overall EGF-induced cellular tyrosine phosphorylation” value [3, 13] was “decreased” and the EGFR electrophoretic mobility [3, 14] was “concentration-dependent increase”. For the same compound, the “EGFR phosphorylation (phospho-specific antibody)” value [3, 14] was “decrease”, the PARP cleavage [3, 14] was “concentration-dependent increase” and the Erk phosphorylation ([1]; 20 μM NSC624205, 24 h (FIG. 2E)) was “inhibiting”. For the same compound, the Erk phosphorylation (Erk in T47D cells) was “inhibiting”.
